Source: patent US20220117964A1, “COMBINATION OF FAK INHIBITOR AND BTK INHIBITOR FOR TREATING A DISEASE” (ASCENTAGE PHARMA (SUZHU) CO., LTD., priority 2019, published 2022)
Where two headings read alike, the source gives them in different places.

Columns and labels:
YES-2 = assay: CCK-8 cell viability assay; format: cell-based; conditions: read-out: IC50, proliferation inhibition
Method: (§1) Cell viability was measured using Cell Counting Kit-8 (Dojindo, Japan) according to the manufacturer's instructions. In short, cells were inoculated in a 96-well plate at 3000 to 4000 cells/well in the presence of a single drug or a combination of drugs for 72 hours. After 72 hours, CCK-8 reagent (10 μL/well) was added and incubated at 37° C. for 1-2 hours, and absorbance readings at 450 nm were obtained. The IC50 values were calculated by using GraphPad Prism version 6.0.0 (GraphPad Software, San Diego, Calif. USA) for Windows.
(§2) (1) The experimental method was described in item (1) and item (5) of Example 2. The expression difference of FAK gene between normal esophageal tissue and esophageal cancer tissue was determined by analyzing the TCGA database source information in the GEPIA database (http://gepia.cancer-pku.cn/), and the correlation between the FAK gene and the EGFR gene in esophageal cancer was determined by analyzing the TCGA database source information using the Pearson test. The basic protein expression levels for the following proteins in 6 esophageal cancer cell lines (TE-10, TE-1, YES-2, KYSE-520, KYSE-510, KYSE-150) were detected by Western blot method: EGFR, phosphorylated-EGFR (p-EGFR, Tyr1068), FAK, phosphorylated-FAK (p-FAK, Tyr397), BTK, C-Myc, phosphorylated-C-Myc (p-C-Myc), in which f3-tubulin was used as internal reference protein.
(§3) (1) The experimental methods were as described in the items (1), (3) and (4) of Example 2.

KYSE-520 = assay: CCK-8 cell viability assay; format: cell-based; conditions: Homo sapiens; KYSE-520 cells, CCK-8, 72 hours; read-out: IC50, proliferation inhibition
Method: as §1, §2, §3

KYSE-150 = assay: CCK-8 cell viability assay; format: cell-based; conditions: Homo sapiens; KYSE-150 cells, CCK-8, 72 hours; read-out: IC50, proliferation inhibition
Method: as §1, §2, §3

KYSE-510 = assay: CCK-8 cell viability assay; format: cell-based; conditions: Homo sapiens; KYSE-510 cells, CCK-8, 72 hours; read-out: IC50, proliferation inhibition
Method: as §1, with “Windows. […] The expression difference of FAK gene between normal esophageal tissue and esophageal cancer tissue was determined by analyzing the TCGA database source information in the GEPIA database (http://gepia.cancer-pku.cn/), and the correlation between the FAK gene and the EGFR gene in esophageal cancer was determined by analyzing the TCGA database source information using the Pearson test. The basic protein expression levels for the following proteins in 6 esophageal cancer cell lines (TE-10, TE-1, YES-2, KYSE-520, KYSE-510, KYSE-150) were detected by Western blot method: […]” for “Windows.”

TE-1 = assay: CCK-8 cell viability assay; format: cell-based; conditions: Homo sapiens; TE-1 cells, CCK-8, 72 hours; read-out: IC50, proliferation inhibition
Method: as §1, with “Windows. […] The expression difference of FAK gene between normal esophageal tissue and esophageal cancer tissue was determined by analyzing the TCGA database source information in the GEPIA database (http://gepia.cancer-pku.cn/), and the correlation between the FAK gene and the EGFR gene in esophageal cancer was determined by analyzing the TCGA database source information using the Pearson test. The basic protein expression levels for the following proteins in 6 esophageal cancer cell lines (TE-10, TE-1, YES-2, KYSE-520, KYSE-510, KYSE-150) were detected by Western blot method: […]” for “Windows.”

TE-10 = assay: CCK-8 cell viability assay; format: cell-based; conditions: Homo sapiens; TE-10 cells, CCK-8, 72 hours; read-out: IC50, proliferation inhibition
Method: as §1, with “Windows. […] The expression difference of FAK gene between normal esophageal tissue and esophageal cancer tissue was determined by analyzing the TCGA database source information in the GEPIA database (http://gepia.cancer-pku.cn/), and the correlation between the FAK gene and the EGFR gene in esophageal cancer was determined by analyzing the TCGA database source information using the Pearson test. The basic protein expression levels for the following proteins in 6 esophageal cancer cell lines (TE-10, TE-1, YES-2, KYSE-520, KYSE-510, KYSE-150) were detected by Western blot method: […]” for “Windows.”

KYSE-150 cells = assay: Cell migration (Transwell) assay; format: cell-based, human; conditions: 1 μM Compound 5, 1 μM Ibrutinib or both
Method: The culture medium was sucked into a chamber of Transwell (PC membrane, pore size 8.0 μm, Corning, N.Y., USA), and then the chamber was placed in a 24-well plate containing 750 μl of 50% FBS medium. After incubation for 24 to 30 hours, the chamber was taken out, the medium in the chamber was sucked out, and the redundant cells in the chamber were wiped off with a cotton swab. The chamber was placed in paraformaldehyde to perform fixation for 15 minutes, and staining was performed with 0.5% crystal violet at room temperature for 15 minutes. Cell migration activity was described as a relative number of the cells that exited the chamber.
(1) The experimental method was as described in the items (1), (2), (5) of Example 2. […] The changes in signaling pathway of related proteins were determined by Western blotting assay.

| SMILES | IC50 (YES-2; YES-2 cells, CCK-8, 72 hours) [nM] | IC50 (KYSE-520) [nM] | IC50 (KYSE-150) [nM] | IC50 (KYSE-510) [nM] | IC50 (TE-1) [nM] | IC50 (TE-10) [nM] | cell migration (KYSE-150 cells) | IC50 (YES-2; 72 h) [nM] |
| --- | --- | --- | --- | --- | --- | --- | --- | --- |
| Cc1cc(Nc2ncc(Cl)c(Nc3ccccc3S(=O)(=O)C(C)C)n2)c(OC(C)C)cc1C1=CCN(C2CCOCC2)CC1 [Compound 5, 5-chloro-N^2-(2-isopropoxy-5-methyl-4-(1-(tetrahydro-2H-pyran-4-yl)-1,2,3,6-tetrahydropyridin-4-yl)phenyl)-N^4-(2-(isopropylsulfonyl)phenyl)pyrimidine-2,4-diamine] | 956 | 825 | 2310 | 2270 | 2210 | 2600 | cell migration in certain extent | – |
| C=CC(=O)N1CCC[C@@H](n2nc(-c3ccc(Oc4ccccc4)cc3)c3c(N)ncnc32)C1 [Ibrutinib] | – | 245 | 1220 | 4420 | 9880 | 3010 | cell migration in certain extent | 177 |
